Laboratory results from US20230045421A1 (priority 2018, published 2023).

system: HBV rcDNA; experiment: HepDE19 assay with bDNA quantitation of HBV rcDNA; assay type: cell-based, hepatitis B virus; settings: HepDE19 assay, inhibition of formation of rcDNA; read-out: DE-19bDNA EC50
Method in brief: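 Compounds, top concentration 25 μM in 8-point duplicate series, were applied to Tet-free HepDE19 cultures for 7 days. Branched-DNA quantitation of HBV rcDNA against untreated wells gave EC50 and EC90 by 4-parameter fit. Viability (CC50) came from ATP luminescence on parallel plates incubated 4 days.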

SMILES	EC50
COc1ccc2c(C(C)N(C)C(=O)Nc3ccc(F)c(Cl)c3)c[nH]c(=O)c2c1 (single isomer, unassigned) [Compound 177, 3-(3-Chloro-4-fluorophenyl)-1-(1-(7-methoxy-1-oxo-1,2-dihydroisoquinolin-4-yl)ethyl)-1-methylurea]	2200 nM
CC(c1c[nH]c(=O)c2ccccc12)N(CC1CCOC1)C(=O)Nc1ccc(F)c(Cl)c1 (stereo not shown) [Compound 175]	850 nM
CC(c1c[nH]c(=O)c2ccccc12)N(C[C@@H]1CCCO1)C(=O)Nc1ccc(F)c(Cl)c1 (single isomer, unassigned) [Compound 161]	150 nM
CC(c1c[nH]c(=O)c2ccc(F)cc12)N(C)C(=O)Nc1ccc(F)c(Cl)c1 (single isomer, unassigned) [Compound 170, 3-(3-Chloro-4-fluorophenyl)-1-(1-(6-fluoro-1-oxo-1,2-dihydroisoquinolin-4-yl)ethyl)-1-methylurea]	30 nM
CC(c1c[nH]c(=O)c2ccccc12)N(CC(C)(C)CO)C(=O)Nc1ccc(F)c(Cl)c1 (single isomer, unassigned) [Compound 210, 3-(3-Chloro-4-fluorophenyl)-1-(3-hydroxy-2,2-dimethylpropyl)-1-(1-(1-oxo-1,2-dihydroisoquinolin-4-yl)ethyl)urea]	100 nM
CC(c1c[nH]c(=O)c2ccccc12)N(CC1CCCCC1)C(=O)Nc1ccc(F)c(Cl)c1 (single isomer, unassigned) [Compound 195, 3-(3-Chloro-4-fluorophenyl)-1-(cyclohexylmethyl)-1-(1-(1-oxo-1,2-dihydroisoquinolin-4-yl)ethyl)urea]	30 nM
CC(c1c[nH]c(=O)c2ccccc12)N(Cc1c[nH]nn1)C(=O)Nc1ccc(F)c(Cl)c1 (single isomer, unassigned) [Compound 266, 1-((2H-1,2,3-Triazol-4-yl)methyl)-3-(3-chloro-4-fluorophenyl)-1-(1-(1-oxo-1,2-dihydroisoquinolin-4-yl)ethyl)urea]	12000 nM
COCCCN(C(=O)Nc1ccc(F)c(Cl)c1)C(C)c1c[nH]c(=O)c2ccccc12 (stereo not shown) [Compound 79]	2100 nM
CC(c1c[nH]c(=O)c2ccccc12)N(CC1COC(C)(C)OC1)C(=O)Nc1ccc(F)c(Cl)c1 (single isomer, unassigned) [Compound 272, 3-(3-Chloro-4-fluorophenyl)-1-((2,2-dimethyl-1,3-dioxan-5-yl)methyl)-1-(1-(1-oxo-1,2-dihydroisoquinolin-4-yl)ethyl)urea]	1800 nM
CC(c1c[nH]c(=O)c2ccccc12)N(CCNCC(F)(F)F)C(=O)Nc1ccc(F)c(Cl)c1 (single isomer, unassigned) [Compound 162, 3-(3-Chloro-4-fluorophenyl)-1-(1-(1-oxo-1,2-dihydroisoquinolin-4-yl)ethyl)-1-(2-((2,2,2-trifluoroethyl)amino)ethyl)urea]	580 nM

same assay, conditions: HepDE19 assay, inhibition of formation of relaxed circular DNA (rcDNA), bDNA quantitation; read-out: DE-19bDNA EC50

SMILES	EC50
CC(c1c[nH]c(=O)c2ccc(F)cc12)N(CC1COC(C)(C)OC1)C(=O)Nc1ccc(F)c(Cl)c1 (single isomer, unassigned) [Compound 282, 3-(3-Chloro-4-fluorophenyl)-1-((2,2-dimethyl-1,3-dioxan-5-yl)methyl)-1-(1-(6-fluoro-1-oxo-1,2-dihydroisoquinolin-4-yl)ethyl)urea]	4000 nM
CC(c1c[nH]c(=O)c2c(F)c(F)ccc12)N(C)C(=O)Nc1cc(F)c(F)c(F)c1 (single isomer, unassigned) [Compound 442, 1-(1-(7,8-Difluoro-1-oxo-1,2-dihydroisoquinolin-4-yl)ethyl)-1-methyl-3-(3,4,5-trifluorophenyl)urea]	4700 nM
CC(c1c[nH]c(=O)c2c(F)c(F)ccc12)N(C)C(=O)Nc1ccc(F)cc1 (single isomer, unassigned) [Compound 433, 1-(1-(7,8-Difluoro-1-oxo-1,2-dihydroisoquinolin-4-yl)ethyl)-3-(4-fluorophenyl)-1-methylurea]	70 nM
CCN(C(=O)Nc1ccc(F)c(Cl)c1)C(C)c1c[nH]c(=O)c2cc(F)c(F)cc12 (single isomer, unassigned) [Compound 407, 3-(3-Chloro-4-fluorophenyl)-1-(1-(6,7-difluoro-1-oxo-1,2-dihydroisoquinolin-4-yl)ethyl)-1-ethylurea]	6 nM
CC(c1c[nH]c(=O)c2ccccc12)N(Cc1cccnc1)C(=O)Nc1ccc(F)c(Cl)c1 (single isomer, unassigned) [Compound 307, 3-(3-Chloro-4-fluorophenyl)-1-(1-(1-oxo-1,2-dihydroisoquinolin-4-yl)ethyl)-1-(pyridin-3-ylmethyl) urea]	20000 nM
CC(c1c[nH]c(=O)c2cc(F)c(F)cc12)N(CCCO)C(=O)Nc1ccc(F)cc1 (single isomer, unassigned) [Compound 292, 1-(1-(6,7-Difluoro-1-oxo-1,2-dihydroisoquinolin-4-yl)ethyl)-3-(4-fluorophenyl)-1-(3-hydroxypropyl) urea]	10 nM
CNC(=O)c1ncc(C(C)N(C)C(=O)Nc2ccc(F)c(Cl)c2)c2ccccc12 (single isomer, unassigned) [Compound 317, 4-(1-(3-(3-Chloro-4-fluorophenyl)-1-methylureido)ethyl)-N-methylisoquinoline-1-carboxamide]	77 nM
CC(c1cnc(-n2ccnn2)c2ccccc12)N(C)C(=O)Nc1ccc(F)c(Cl)c1 (single isomer, unassigned) [Compound 425, 1-(1-(1-(1H-1,2,3-Triazol-1-yl)isoquinolin-4-yl)ethyl)-3-(3-chloro-4-fluorophenyl)-1-methylurea]	90 nM
Cc1cc(NC(=O)N(C)C(C)c2c[nH]c(=O)c3cc(F)c(F)cc23)ccc1F (single isomer, unassigned) [Compound 426, 1-(1-(6,7-Difluoro-1-oxo-1,2-dihydroisoquinolin-4-yl)ethyl)-3-(4-fluoro-3-methylphenyl)-1-methylurea]	110 nM
CC(c1cnc(S(C)(=O)=O)c2ccccc12)N(C)C(=O)Nc1ccc(F)c(Cl)c1 (single isomer, unassigned) [Compound 314, 3-(3-Chloro-4-fluorophenyl)-1-methyl-1-(1-(1-(methylsulfonyl)isoquinolin-4-yl)ethyl)urea]	8300 nM

same assay, conditions: Hepatitis B virus, HepDE19, HepDE19 assay, inhibition of formation of rcDNA; read-out: DE-19bDNA EC50

SMILES	EC50
C[C@H](c1c[nH]c(=O)c2ccccc12)N(C)C(=O)Nc1ccc(F)c(F)c1 [Compound 92, (R)-3-(3,4-Difluorophenyl)-1-methyl-1-(1-(1-oxo-1,2-dihydroisoquinolin-4-yl)ethyl)urea]	230 nM
COc1ncc(C(CCO)NC(=O)Nc2ccc(F)c(Cl)c2)c2ccccc12 (racemic) [Compound 71, 1-(3-Chloro-4-fluorophenyl)-3-(3-hydroxy-1-(1-methoxyisoquinolin-4-yl)propyl)urea]	4400 nM
CCCN(C(=O)Nc1ccc(F)c(C)c1)[C@H](C)c1c[nH]c(=O)c2ccccc12 [Compound 43, (R)-3-(4-Fluoro-3-methylphenyl)-1-(1-(1-oxo-1,2-dihydroisoquinolin-4-yl)ethyl)-1-propylurea]	10 nM
COc1ncc(CN(CC2CC2)C(=O)Nc2ccc(F)c(Cl)c2)c2ccccc12 [Compound 31, 3-(3-Chloro-4-fluorophenyl)-1-(cyclopropylmethyl)-1-((1-methoxyisoquinolin-4-yl)methyl)urea]	870 nM
COc1ncc([C@@H](C)N(CC(F)(F)F)C(=O)Nc2ccc(F)c(Cl)c2)c2ccccc12 [Compound 101, (R)-3-(3-Chloro-4-fluorophenyl)-1-(1-(1-methoxyisoquinolin-4-yl)ethyl)-1-(2,2,2-trifluoroethyl)urea]	420 nM
C[C@@H](c1c[nH]c(=O)c2ccccc12)N(C)C(=O)Nc1ccc(F)c(Cl)c1 [Compound 13, 3-(3-Chloro-4-fluorophenyl)-1-methyl-1-(1-(1-oxo-1,2-dihydroisoquinolin-4-yl)ethyl)urea]	4700 nM
CC(c1c[nH]c(=O)c2nccnc12)N(C)C(=O)Nc1ccc(F)c(Cl)c1 (racemic) [Compound 148, 3-(3-chloro-4-fluorophenyl)-1-methyl-1-(1-(5-oxo-5,6-dihydropyrido[3,4-b]pyrazin-8-yl)ethyl)urea]	15000 nM

same assay, conditions: Hepatitis B virus, HepDE19, HepDE19 assay, inhibition of formation of relaxed circular DNA (rcDNA), bDNA quantitation; read-out: DE-19bDNA EC50

SMILES	EC50
CC(C)CN(C(=O)Nc1ccc(F)c(Cl)c1)C(C)c1cnc(-n2ccnn2)c2ccccc12 (racemic) [Compound 355, 1-(1-(1-(1H-1,2,3-Triazol-1-yl)isoquinolin-4-yl)ethyl)-3-(3-chloro-4-fluorophenyl)-1-isobutylurea]	18 nM

same assay, conditions: read-out: DE-19bDNA EC50; HepDE19 assay, inhibition of formation of rcDNA

SMILES	EC50
CCOCCN(C(=O)Nc1ccc(F)c(Cl)c1)C(C)c1c[nH]c(=O)c2ccccc12 (single isomer, unassigned) [Compound 109, 3-(3-Chloro-4-fluorophenyl)-1-(2-ethoxyethyl)-1-(1-(1-oxo-1,2-dihydroisoquinolin-4-yl)ethyl)urea]	8000 nM
CCN(C(=O)Nc1ccc(F)c(Cl)c1)C(c1c[nH]c(=O)c2ccccc12)C(C)C (single isomer, unassigned) [Compound 55, 3-(3-Chloro-4-fluorophenyl)-1-ethyl-1-(2-methyl-1-(1-oxo-1,2-dihydroisoquinolin-4-yl)propyl)urea]	11000 nM

same assay, conditions: read-out: DE-19bDNA EC50; HepDE19 assay, inhibition of formation of relaxed circular DNA (rcDNA), bDNA quantitation

SMILES	EC50
CC(c1c[nH]c(=O)c2cc(F)c(F)cc12)N(C)C(=O)Nc1cccc(Cl)c1 (single isomer, unassigned) [Compound 413, 1-(1-(6,7-Difluoro-1-oxo-1,2-dihydroisoquinolin-4-yl)ethyl)-3-(3-chlorophenyl)-1-methylurea]	18 nM
